Experiments:
[1] = test system: mice; assay: Interaction with barbital sodium (sleep induced by barbital sodium in mice); assay type: in vivo; conditions: barbital sodium 180 mg.kg^-1 i.p.
Protocol: Interaction with barbital sodium
At time 0, the mice receive, by intraperitoneal or oral administration, distilled water or the medicament according to the invention. After 30 minutes, they receive barbital sodium (180 mg.kg^-1) by intraperitoneal administration.

[2] = test system: mice; assay: Sleep induced by pentobarbital in mice; assay type: in vivo; conditions: pentobarbital 50 mg.kg^-1 i.p.
Protocol: (b) Absence of modification of the effects of pentobarbital
At time 0, the mice receive, by intraperitoneal or oral administration, distilled water or the medicament according to the invention, obtained in accordance with Example I. After 30 minutes, they receive pentobarbital (50 mg.kg^-1) by intraperitoneal administration.

Question: Which results are given for `CC1CC(c2ccc(Cl)cc2)C(c2ccccc2)C(=O)O1` (stereo not drawn) [Example I, trans-4-(4'-chlorophenyl)-6-methyl-3-phenyl-3,4,5,6-tetrahydropyrone-2]?
Answer: % of mice which have slept ([1]; 2 mg/kg oral): 83%; Time in minutes for induction of sleep ([1]; 2 mg/kg oral): 25 min; Time in minutes of sleep ([1]; 2 mg/kg oral): 47 ± 15 min; % of mice which have slept ([1]; 4 mg/kg intraperitoneal): 83%; Time in minutes for induction of sleep ([1]; 4 mg/kg intraperitoneal): 22 min; Time in minutes of sleep ([1]; 4 mg/kg intraperitoneal): 37 ± 13 min; % of mice which have slept ([1]; 4 mg/kg oral): 25%; Time in minutes for induction of sleep ([1]; 4 mg/kg oral): 33 min; Time in minutes of sleep ([1]; 4 mg/kg oral): 56 min; % of mice which have slept ([1]; 8 mg/kg intraperitoneal): 83%; Time in minutes for induction of sleep ([1]; 8 mg/kg intraperitoneal): 30 min; Time in minutes of sleep ([1]; 8 mg/kg intraperitoneal): 25 ± 4 min; % of mice which have slept ([1]; 8 mg/kg oral): 42%; Time in minutes for induction of sleep ([1]; 8 mg/kg oral): 32 min; Time in minutes of sleep ([1]; 8 mg/kg oral): 43 min; % of mice which have slept ([1]; 16 mg/kg intraperitoneal): 33%; Time in minutes for induction of sleep ([1]; 16 mg/kg intraperitoneal): 38 min; Time in minutes of sleep ([1]; 16 mg/kg intraperitoneal): 14 min; % of mice which have slept ([1]; 16 mg/kg oral): 0%; Time in minutes for induction of sleep ([1]; 16 mg/kg oral): 0 min; Time in minutes of sleep ([1]; 16 mg/kg oral): 0 min; % of mice which have slept ([1]; 32 mg/kg intraperitoneal): 0%; Time in minutes for induction of sleep ([1]; 32 mg/kg intraperitoneal): 0 min; Time in minutes of sleep ([1]; 32 mg/kg intraperitoneal): 0 min; % of mice which have slept ([1]; 32 mg/kg oral): 00%; Time in minutes for induction of sleep ([1]; 32 mg/kg oral): 0 min; Time in minutes of sleep ([1]; 32 mg/kg oral): 0 min; % of mice which have slept ([2]; 2 mg/kg intraperitoneal): 100%; Time in minutes for induction of sleep ([2]; 2 mg/kg intraperitoneal): 4 min; Time in minutes of sleep ([2]; 2 mg/kg intraperitoneal): 47 ± 7 min; % of mice which have slept ([2]; 2 mg/kg oral): 100%; Time in minutes for induction of sleep ([2]; 2 mg/kg oral): 4 min; Time in minutes of sleep ([2]; 2 mg/kg oral): 60 ± 8 min; % of mice which have slept ([2]; 4 mg/kg intraperitoneal): 100%; Time in minutes for induction of sleep ([2]; 4 mg/kg intraperitoneal): 4 min; Time in minutes of sleep ([2]; 4 mg/kg intraperitoneal): 55 ± 8 min; % of mice which have slept ([2]; 4 mg/kg oral): 100%; Time in minutes for induction of sleep ([2]; 4 mg/kg oral): 4 min; Time in minutes of sleep ([2]; 4 mg/kg oral): 45 ± 4 min; % of mice which have slept ([2]; 8 mg/kg intraperitoneal): 100%; Time in minutes for induction of sleep ([2]; 8 mg/kg intraperitoneal): 4 min; Time in minutes of sleep ([2]; 8 mg/kg intraperitoneal): 36 ± 3 min; % of mice which have slept ([2]; 8 mg/kg oral): 100%; Time in minutes for induction of sleep ([2]; 8 mg/kg oral): 4 min; Time in minutes of sleep ([2]; 8 mg/kg oral): 57 ± 10 min; % of mice which have slept ([2]; 16 mg/kg intraperitoneal): 83%; Time in minutes for induction of sleep ([2]; 16 mg/kg intraperitoneal): 4.5 min; Time in minutes of sleep ([2]; 16 mg/kg intraperitoneal): 26 ± 7 min; % of mice which have slept ([2]; 16 mg/kg oral): 100%; Time in minutes for induction of sleep ([2]; 16 mg/kg oral): 4 min; Time in minutes of sleep ([2]; 16 mg/kg oral): 41 ± 7 min; % of mice which have slept ([2]; 32 mg/kg intraperitoneal): 92%; Time in minutes for induction of sleep ([2]; 32 mg/kg intraperitoneal): 4.5 min; Time in minutes of sleep ([2]; 32 mg/kg intraperitoneal): 27 ± 3 min; % of mice which have slept ([2]; 32 mg/kg oral): 100%; Time in minutes for induction of sleep ([2]; 32 mg/kg oral): 4 min; Time in minutes of sleep ([2]; 32 mg/kg oral): 49 ± 4 min; % of mice which have slept ([2]; 64 mg/kg intraperitoneal): 100%; Time in minutes for induction of sleep ([2]; 64 mg/kg intraperitoneal): 4 min; Time in minutes of sleep ([2]; 64 mg/kg intraperitoneal): 30 ± 9 min; % of mice which have slept ([2]; 64 mg/kg oral): 100%; Time in minutes for induction of sleep ([2]; 64 mg/kg oral): 5 min; Time in minutes of sleep ([2]; 64 mg/kg oral): 29 ± 8 min; % of mice which have slept ([2]; 128 mg/kg intraperitoneal): 83%; Time in minutes for induction of sleep ([2]; 128 mg/kg intraperitoneal): 6 min; Time in minutes of sleep ([2]; 128 mg/kg intraperitoneal): 25 ± 5 min; % of mice which have slept ([2]; 128 mg/kg oral): 100%; Time in minutes for induction of sleep ([2]; 128 mg/kg oral): 4 min; Time in minutes of sleep ([2]; 128 mg/kg oral): 38 ± 7 min

From US4287206A, “Halogen derivatives of 8-hydroxycarboxylic acids; the processes for their preparation and medicaments in which they are present” (priority 1978, dated 1981)
